From patent US20240342239A1, “TREATMENT OF NON-CYSTIC FIBROSIS BRONCHIECTASIS” (Zambon S.P.A., priority 2021, published 2024)
“Also recorded” adds a separate entry of the source.

Columns and labels:
NCFB patients = details: cited from earlier work
Pseudomonas aeruginosa = test: PROMIS 1: P. aeruginosa density in sputum; type: in vivo; details: for Mean change from baseline in P. aeruginosa density: mITT
From the text: Least square means in each treatment group, least square mean difference between treatments, their 95% CIs and associated p-values have been estimated.
Summary statistics of the P. aeruginosa density (log 10 CFU/g sputum) and change from baseline (Visit 2) will be provided by treatment group for each trial visit.
Results of the quantitative analysis for P. aeruginosa density will be presented as colony forming units (CFU) count per gram sputum.

[1] = test system: subjects with NCFB chronically infected with P. aeruginosa; test: PROMIS 1: quality of life by Saint George's Respiratory Questionnaire (SGRQ); type: in vivo, human; details: at the end of the CMS treatment
From the text: The SGRQ total score and domain scores (Symptoms, Activity and Impact scores) has been summarised at each visit by treatment group using descriptive statistics. Changes from baseline (Visit 2) have been also summarised for each post-baseline visit by treatment group. Scores have been computed according to the SGRQ manual.
SGRQ total score has been analysed using a linear mixed model for repeated measures including treatment, visit, treatment-by-visit interaction, use of stable concomitant therapy with oral macrolides and pooled sites as fixed effects and baseline value as covariate. An unstructured covariance matrix has been assumed and the Kenward-Roger adjustment has been used for the degrees of freedom. The least square means in each treatment group, the least square mean differences between treatments, their 95% CIs and associated p-values at each visit will be estimated by the model.
It is described e.g. in U.S. Pat. No. 6,367,470.

[2] = test system: subjects with NCFB chronically infected with P. aeruginosa; test: PROMIS 1 Phase III clinical study: NCFB pulmonary exacerbations, inhaled CMS via I-neb vs placebo; type: in vivo, human; details: for hazard ratio, time to first NCFB pulmonary exacerbation: CMS vs placebo, Cox proportional hazard model; for rate ratio of CMS relative to placebo, NCFB pulmonary exacerbation annual rate: LS Mean
Procedure: As used herein the term “pulmonary exacerbation” in a patient refers to the presence concurrently of at least 3 of the following 8 symptoms/signs for at least 24 hours: • increased cough; • increased sputum volume and/or consistency; • increased sputum purulence; • new or increased haemoptysis; • increased wheezing; • increased dyspnoea; • increased fatigue/malaise; • episodes of fever (temperature≥38° C.) • and it is clinically determined that the subject requires and is prescribed systemic antibiotic therapy. A new pulmonary exacerbation is only considered to occur if there are at least 14 days between the end of the course of systemic antibiotics and the onset of new qualifying symptoms. (Note: A pulmonary exacerbation is reported as an Adverse Event or serious AE [SAE]).
A “severe” pulmonary exacerbation is herein defined a pulmonary exacerbation requiring intravenous antibiotics and/or hospitalisation.
A supportive analysis has been conducted using an alternative definition of NCFB pulmonary exacerbation. The re-classification of exacerbations has been conducted in a blinded fashion (before database lock). The alternative definition of pulmonary exacerbations used will be deterioration in three or more of the following key symptoms for at least 48 hours: • Cough • Sputum volume and/or consistency • Sputum purulence • Breathlessness and/or exercise tolerance (dyspnoea) • Fatigue and/or malaise • Haemoptysis • And: • a physician determines a change in bronchiectasis treatment is required when other potential causes of clinical deterioration have been discounted.
The number of NCFB pulmonary exacerbations during the treatment period has been analysed using a Poisson regression model allowing for over-dispersion including treatment, pooled sites and use of stable concomitant therapy with oral macrolides as fixed effects and log-time on trial as an offset.
The number and the percentage of subjects with NCFB pulmonary exacerbations, the number of pulmonary exacerbations and the total follow-up time in years have been summarised by treatment group. The adjusted yearly mean exacerbation rates in each treatment group and the adjusted rate ratio with their 95% CIs has been estimated by the model.
For the analysis, 2 pulmonary exacerbations have been considered as a single episode in cases where the second exacerbation starts less than 14 days after the end of the antibiotic therapy (oral or intravenous) for the first pulmonary exacerbation.
The time to the first NCFB pulmonary exacerbation and the time to the first severe NCFB pulmonary exacerbation has been calculated as the time in days from the date of the first dose of IMP to the date at which the first pulmonary exacerbation occurs (i.e. date at which the first pulmonary exacerbation occurs—date of the first dose+1). A […] has been used to compare the treatment groups. Subjects completing the trial without NCFB pulmonary exacerbations or who are discontinued prematurely without exacerbations, will be considered as censored at the time of their last follow-up. […]
The primary variable for this trial is the mean annual NCFB pulmonary exacerbation rate (frequency of pulmonary exacerbations) over 12 months.

[3] = test system: bronchiectasis patients with P. aeruginosa; details: cited from earlier work; for time to first exacerbation compared to placebo: 1 MU twice daily through the I-neb, up to 6 months (PPCTP/001, Haworth 2014)
[4] = sensitivity analysis, alternative definition of exacerbation

O=C(O)c1cn(C2CC2)c2cc(N3CCNCC3)c(F)cc2c1=O [ciprofloxacin]
trial outcome, primary endpoints (NCFB patients; ORBIT-3 and RESPIRE-2 trials): failed to achieve their primary endpoints | trial outcome, time of first exacerbation and rate of exacerbations vs placebo (NCFB patients; ORBIT-4 and RESPIRE-1 trials): showed clinical benefit

colistimethate sodium [CMS]
LS mean difference in P. aeruginosa density, CMS vs placebo (Pseudomonas aeruginosa; after 1 month): −1.620 | Mean change from baseline in P. aeruginosa density (Pseudomonas aeruginosa; Visit 3 (28 days)): −1.59 log10(CFU/mL) | Mean change from baseline in P. aeruginosa density (Pseudomonas aeruginosa; Visit 5 (6 months)): −1.39 log10(CFU/mL) | Mean change from baseline in P. aeruginosa density (Pseudomonas aeruginosa; Visit 6 (9 months)): −1.56 log10(CFU/mL) | Mean change from baseline in P. aeruginosa density (Pseudomonas aeruginosa; Visit 7 (12 months/EOT)): −0.86 log10(CFU/mL) | course of P. aeruginosa density under treatment (Pseudomonas aeruginosa; over the study): fell rapidly and remained suppressed; also recorded: falls rapidly and remains suppressed | treatment difference in SGRQ total score by LS means [1]: 4.552 | subjects with severe NCFB pulmonary exacerbations ([2]; 19/176 subjects): 10.8% | LS mean NCFB pulmonary exacerbation annual rate ([2]; PP Population): 0.491 | LS mean rate ratio of CMS relative to placebo ([2]; PP Population): 0.583 | reduction in pulmonary exacerbation rate vs placebo ([2]; PP Population): 42% | mean annual exacerbation rate (LS Mean) ([2]; adherent subjects (adherence>80%)): 0.494 | median time to first severe NCFB pulmonary exacerbation, 25th and 75th percentile ([2]; human, in vivo): not reached | reduction in the rate of severe pulmonary exacerbations compared to placebo ([2]; human, in vivo): 59% | reduction in the risk of the first exacerbation event compared to placebo ([2]; mITT): 41% | annual rate of exacerbations ([2]; mITT, CMS 1 MIU by I-neb twice a day, 12 months): 0.58 per patient per year | hazard ratio, time to first NCFB pulmonary exacerbation ([2]; mITT): 0.590 | hazard ratio, time to first NCFB pulmonary exacerbation ([2]; mITT, listed as CMS I-neb): 0.59 | median time to first NCFB pulmonary exacerbation ([2]; mITT, from first dose of IMP): not reached | subjects who experienced a pulmonary exacerbation during the study ([2]; mITT, n=68): 38.6% | reduction in the annual rate of pulmonary exacerbations relative to placebo ([2]; mITT, primary analysis): 39% | rate ratio of CMS relative to placebo, NCFB pulmonary exacerbation annual rate ([2]; mITT, primary analysis): 0.612 | rate ratio of CMS relative to placebo, NCFB pulmonary exacerbation annual rate ([2]; mITT, primary analysis, listed as CMS I-neb): 0.61 | LS Mean rate ratio, pulmonary exacerbations ([2]; post-hoc analyses with low-recruiting countries combined): 0.591 | LS mean NCFB pulmonary exacerbation annual rate ([2]; sensitivity analysis, alternative (ERS 2017) definition of exacerbation, mITT): 0.538 | LS mean rate ratio of CMS relative to placebo [2, 4]: 0.642 | reduction in pulmonary exacerbation rate vs placebo [2, 4]: 36% | LS Mean severe NCFB pulmonary exacerbation annual rate ([2]; severe = requiring intravenous antibiotics and/or hospitalisation): 0.116 | LS Mean rate ratio of CMS relative to placebo, severe exacerbations ([2]; severe NCFB pulmonary exacerbations): 0.409 | time to first exacerbation compared to placebo [3]: not statistically different from the placebo group | frequency of adverse respiratory effects (cough, dyspnoea, bronchospasm, sore throat) ([3]; human, in vivo): at least 1 in 10 people | admissions to emergency and days of hospitalization ([3]; observational study, 44 patients, 6 or 12 months, vs period preceding treatment (Lopez Gil Otero 2019)): reduced admissions to emergency and days of hospitalization

colistin
time to first exacerbation compared to placebo [3]: not to be associated with a statistically significant improvement
